# Molecular target: T1, human-mouse chimeric GPR119 (Homo sapiens, UniProt Q8TDV5, A235T/C313R/C323Y/E253K/F304I/F307L/G211A/G245S/H255C/K284R/L224V/L258Q/L288Q/L301F/P218V/P318T/Q252H/R262K/S214P/S219N/S228A/S309P/S322A/T217S/T239S/V227I/V300F)
# T1 construct: the first 198 amino acids of human GPR119; the C-terminal 137 amino acids of the mouse receptor; expressed in transfected cells
# T1 sequence (Q8TDV5 with tags, fused parts or gaps G211A/S214P/T217S/P218V/S219N/L224V/V227I/S228A/A235T/T239S/G245S/Q252H/E253K/H255C/L258Q/R262K/K284R/L288Q/V300F/L301F/F304I/F307L/S309P/C313R/P318T/S322A/C323Y): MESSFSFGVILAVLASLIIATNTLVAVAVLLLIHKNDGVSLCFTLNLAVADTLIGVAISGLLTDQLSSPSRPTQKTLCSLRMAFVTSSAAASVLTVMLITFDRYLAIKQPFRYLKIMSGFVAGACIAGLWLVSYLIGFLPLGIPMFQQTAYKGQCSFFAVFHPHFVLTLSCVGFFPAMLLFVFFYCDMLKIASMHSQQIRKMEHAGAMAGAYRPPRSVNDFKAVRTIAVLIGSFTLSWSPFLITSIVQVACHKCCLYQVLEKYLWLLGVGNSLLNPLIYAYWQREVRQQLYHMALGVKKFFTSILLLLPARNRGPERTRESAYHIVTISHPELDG
# Experiment: Tet-inducible cAMP assay
# Format: cell-based
# Details: not given
# Experimental: The in vitro modulation of recombinant human GPR119 was determined as follows.
# A human-mouse chimeric GPR119 expression construct encoding 3 copies of the FLAG epitope tag, the first 198 amino acids of human GPR119 and the C-terminal 137 amino acids of the mouse receptor was cloned into a tetracycline inducible vector pcDNA5/FRT/TO (Invitrogen #V6520-20), which includes a hygromycin-resistance marker. Tightly controlled receptor expression was achieved by stable integration of this construct into the genome of a specific host cell line, Flp-In-T-Rex-HEK293, expressing the tetracycline repressor (Invitrogen). Once a stable hygromycin-resistant cell line was generated, the cells were maintained at 37° C. in a humidified 5% CO2 atmosphere in culture medium consisting of Dulbecco's modified Eagle's medium (DMEM; Invitrogen #11960) supplemented with 2 mM L-glutamine, 10% fetal bovine serum, 200 μg/ml hygromycin B, and 15 μg/ml blasticidin.
# Forty-eight hours prior to the cAMP accumulation assay, cells stably expressing the chimeric human/mouse GPR119 construct were seeded at a density of 4×10^3 cells/well in 384 well poly-D-lysine coated solid white plates (BD #35-6661) and grown at 37° C. in a humidified 5% CO2 atmosphere in culture medium supplemented with 1 μg/ml tetracycline to induce expression of the receptor. On the day of the assay, medium was removed and cells were incubated for 50 min. at 37° C. in a humidified 5% CO2 atmosphere in 20 μl/well of assay buffer (phosphate-buffered saline with Ca^2+ and Mg^2+, 12 mM glucose, 0.1 mM isobutyl-methyl-xanthine, 0.1% fatty-acid free bovine serum albumin) with the desired concentration of compound added from a concentrated stock dissolved in dimethyl sulfoxide (DMSO) to give a final concentration of 1% DMSO in the assay. cAMP accumulation was measured using the CisBio homogeneous time resolved fluorescence (HTRF) assay kit (#62AM2PEC) following the manufacturer's protocol. Briefly, 10 μl each of the cAMP-HTRF fluorescence detection reagents were added to each well, and the samples were incubated for 40 min. at room temperature. Fluorescence was excited at 320 nm and measured at 665 and 620 nm using the Envision instrument (Perkin Elmer), the fluorescence ratio of 665/620 was calculated and converted to nanomolar concentrations of cAMP in each well by interpolation from a cAMP standard curve. The concentration-response curves and EC50 values were calculated with a four parameter logistic curve fit equation utilizing Excel/XLfit software (Microsoft and IDBS). The EC50 value was calculated as the concentration of agonist which increased the cAMP concentration to a value halfway between the baseline and the maximum.
# Compounds of the present invention were tested in the Tet-inducible cAMP assay described immediately above and the results shown in Table 2 below were obtained.
row,Compound,EC50
1,CCCc1cnc(N2CCC(Oc3nc4ccc(C5=CCN(S(=O)(=O)CCCCCCP(=O)(OC)OC)CC5)cc4s3)CC2)nc1 [Example 177],9.7 nM

# Same assay, conditions: cAMP accumulation (HTRF), Flp-In-T-Rex-HEK293 cells expressing chimeric human/mouse GPR119, 50 min incubation; read-out: GPR119 EC50
row,Compound,EC50
1,"CCCc1cnc(N2CCC(Oc3nc4ccc(C5=CCN(S(=O)(=O)C[C@@H](C)CO)CC5)cc4s3)CC2)nc1 (single isomer, unassigned) [Example 19]",2.3 nM
2,"CCCc1cnc(N2CCC(Oc3nc4ccc(C5=CCN(S(=O)(=O)CCCO)CC5)cc4s3)CC2)nc1 [Example 3, 3-(4-(2-(1-(5-Propylpyrimidin-2-yl)piperidin-4-yloxy)benzo[d]thiazol-6-yl)-5,6-dihydropyridin-1(2H)-ylsulfonyl)propan-1-ol]",11.1 nM
3,"CCCc1cnc(N2CCC(Oc3nc4ccc(C5=CCN(S(=O)(=O)CCN6CC(O)C6)CC5)cc4s3)CC2)nc1 [Example 7, 1-(2-(4-(2-(1-(5-Propylpyrimidin-2-yl)piperidin-4-yloxy)benzo[d]thiazol-6-yl)-5,6-dihydropyridin-1(2H)-ylsulfonyl)ethyl)azetidin-3-ol]",33.9 nM
4,"CCCS(=O)(=O)N1CC=C(c2ccc3nc(OC4CCN(S(=O)(=O)C5CC5)CC4)sc3c2)CC1 [Example 22, 2-(1-(Cyclopropylsulfonyl)piperidin-4-yloxy)-6-(1-(propylsulfonyl)-1,2,3,6-tetrahydropyridin-4-yl)benzo[d]thiazole]",29.1 nM
5,"CCCc1cnc(N2CCC(Oc3nc4ccc(C5=CCN(S(=O)(=O)CCCCC[N+](CC)(CC)CC)CC5)cc4s3)CC2)nc1 [Example 32, N,N,N-triethyl-5-(4-(2-(1-(5-propylpyrimidin-2-yl)piperidin-4-yloxy)benzo[d]thiazol-6-yl)-5,6-dihydropyridin-1(2H)-ylsulfonyl)pentan-1-aminium bromide]",9.7 nM
6,"CCCc1cnc(N2CCC(Oc3nc4ccc(C5=CCN(S(=O)(=O)CCC(C)(C)OC(=O)CCC(=O)O)CC5)cc4s3)CC2)nc1 [Example 39, 4-(2-methyl-4-(4-(2-(1-(5-Propylpyrimidin-2-yl)piperidin-4-yloxy)benzo[d]thiazol-6-yl)-5,6-dihydropyridin-1(2H)-ylsulfonyl)butan-2-yloxy)-4-oxobutanoic acid]",25 nM
7,"CC(C)c1noc(N2CCC(Oc3nc4ccc(C5=CCN(S(=O)(=O)CCC(C)(C)O)CC5)cc4s3)CC2)n1 [Example 44, 4-(4-(2-(1-(3-Isopropyl-1,2,4-oxadiazol-5-yl)piperidin-4-yloxy)benzo[d]thiazol-6-yl)-5,6-dihydropyridin-1(2H)-ylsulfonyl)-2-methylbutan-2-ol]",7.2 nM
8,"CCCc1cnc(N2CCC(Oc3nc4ccc(N5CCC(C(=O)N6CCCC6)CC5)cc4s3)CC2)nc1 [Example 45, (1-(2-(1-(5-Propylpyrimidin-2-yl)piperidin-4-yloxy)benzo[d]thiazol-6-yl)piperidin-4-yl)(pyrrolidin-1-yl)methanone]",463 nM
9,"CN(C)S(=O)(=O)N1CC=C(c2ccc3nc(OC4CCN(c5ncc(F)cn5)CC4)sc3c2)CC1 [Example 49, 4-(2-((1-(5-Fluoropyrimidin-2-yl)piperidin-4-yl)oxy)benzo[d]thiazol-6-yl)-N,N-dimethyl-5,6-dihydropyridine-1(2H)-sulfonamide]",7.5 nM
10,CCCc1cnc(N2CCC(Nc3nc4ccc(C5=CCN(S(=O)(=O)CCC)CC5)cc4s3)CC2)nc1 [Example 53],283 nM
11,CCCc1cnc(N2CCC(Nc3nc4ccc(C5=CCN(S(C)(=O)=O)CC5)cc4s3)CC2)nc1 [Example 54],450 nM
12,CCCc1cnc(N2CCC(Oc3nc4ccc(C5=CCN(c6nc(C)cs6)CC5)cc4s3)CC2)nc1 [Example 60],767 nM
13,CCCc1cnc(N2CCC(Oc3nc4ccc(C5=CCN(c6ncc(C)s6)CC5)cc4s3)CC2)nc1 [Example 61],547 nM
14,CCCc1cnc(N2CCC(Oc3nc4ccc(C5=CCN(C(=O)CC(C)C)CC5)cc4s3)CC2)nc1 [Example 63],292 nM
15,CCCc1cnc(N2CCC(Oc3nc4ccc(C5=CCN(C(=O)c6csnn6)CC5)cc4s3)CC2)nc1 [Example 73],788 nM
16,CCCc1cnc(N2CCC(Oc3nc4ccc(C5=CCN(S(=O)(=O)c6cccc(C(=O)O)c6)CC5)cc4s3)CC2)nc1 [Example 79],713 nM
17,CCCCOC(=O)N1CC=C(c2ccc3nc(OC4CCN(c5ncc(CCC)cn5)CC4)sc3c2)CC1 [Example 81],142 nM
18,CCCc1cnc(N2CC[C@@H](Oc3nc4ccc(C5=CCN(S(C)(=O)=O)CC5)cc4s3)C2)nc1 [Example 84],953 nM
19,CCCS(=O)(=O)N1CC=C(c2ccc3nc(OC4CCN(C(C)=O)CC4)sc3c2)CC1 [Example 92],839 nM
20,CCCS(=O)(=O)N1CC=C(c2ccc3nc(OC4CCN(c5nnc(C)s5)CC4)sc3c2)CC1 [Example 107],21.5 nM
21,CCCS(=O)(=O)N1CC=C(c2ccc3nc(OC4CCN(C(=O)c5csnn5)CC4)sc3c2)CC1 [Example 109],37 nM
22,CCCS(=O)(=O)N1CC=C(c2ccc3nc(OC4CCN(S(C)(=O)=O)CC4)sc3c2)CC1 [Example 111],228 nM
23,CCCc1cnc(N2CCC(Oc3nc4ccc(C5=CCN(S(=O)(=O)CCCC(C)(C)O)CC5)cc4s3)CC2)nc1 [Example 114],4.4 nM
24,CCCc1cnc(N2CC[C@H](Oc3nc4ccc(C5=CCN(S(=O)(=O)CCC)CC5)cc4s3)C2)nc1 [Example 115],28.4 nM
25,CCCc1cnc(N2CC[C@H](Oc3nc4ccc(C5=CCN(S(C)(=O)=O)CC5)cc4s3)C2)nc1 [Example 116],22.1 nM
26,CC(C)(O)CCS(=O)(=O)N1CC=C(c2ccc3nc(OC4CCN(c5ncc(Cl)cn5)CC4)sc3c2)CC1 [Example 118],3.6 nM

# More lines, now with the values ahead:
row,EC50,Compound
1,29 nM,CCCS(=O)(=O)N1CC=C(c2ccc3nc(OCC4[C@H]5CN(Cc6ccccc6)C[C@@H]45)sc3c2)CC1 (some centres unmarked) [Example 127]
2,5 nM,CCCc1cnc(N2CCC(Oc3nc4ccc(C5=CCN(S(=O)(=O)CCC6(O)CC6)CC5)cc4s3)CC2)nc1 [Example 131]
3,169 nM,CCCc1cnc(N2CCN(c3nc4ccc(C5=CCN(S(=O)(=O)CC(C)C)CC5)cc4s3)CC2)nc1 [Example 133]
4,55.6 nM,CCCc1cnc(N2CCC(Oc3nc4ccc(C5=CCN(S(=O)(=O)CCN6CCCC6)CC5)cc4s3)CC2)nc1 [Example 134]
5,9.5 nM,CCCc1cnc(N2CCC(Cc3nc4ccc(C5=CCN(S(=O)(=O)CCC(C)(C)O)CC5)cc4o3)CC2)nc1 [Example 141]
6,675 nM,CCCc1cnc(N2CCC(Cc3nc4ccc(N5CCN(S(=O)(=O)CCC(=O)OC)CC5)cc4o3)CC2)nc1 [Example 144]
7,49.3 nM,CCCc1cnc(N2CCC(Cc3nc4ccc(C5CCN(S(=O)(=O)CCC)CC5)cc4o3)CC2)nc1 [Example 147]
8,3 nM,CC(C)(O)CCS(=O)(=O)N1CC=C(c2ccc3nc(OC4CCN(c5nc6ccccc6s5)CC4)sc3c2)CC1 [Example 168]
9,378 nM,CCCNC(=O)N1CC=C(c2ccc3nc(OC4CCN(c5ncc(CCC)cn5)CC4)sc3c2)CC1 [Example 194]
10,169 nM,CC(C)(O)CCS(=O)(=O)N1CC=C(c2ccc3nc(OC4CCN(S(=O)(=O)CC(F)(F)F)CC4)sc3c2)CC1 [Example 205]
11,8.3 nM,CC(C)(O)CCS(=O)(=O)N1CCN(c2ccc3nc(OC4CCN(c5ncc(F)cn5)CC4)sc3c2)CC1 [Example 216]
12,13.9 nM,O=S(=O)(CCCO)N1CCN(c2ccc3nc(OC4CCN(c5ncc(F)cn5)CC4)sc3c2)CC1 [Example 221]
13,2.3 nM,CCCc1cnc(N2CCC(Oc3nc4ccc(C5=CCN(S(=O)(=O)CCCC(=O)N(CC)CC)CC5)cc4s3)CC2)nc1 [Example 231]
14,0.4 nM,COc1cnc(N2CCC(Oc3nc4ccc(C5=CCN(S(=O)(=O)CCCCO)CC5)cc4s3)CC2)nc1 [Example 241]

# — US8940716B2, “Bicyclic heteroaryl compounds as GPR119 modulators” (Bristol-Myers Squibb Company, priority 2010, dated 2015)
